Assay results taken from ChEMBL document CHEMBL5653631, “A Potent and Selective ULK1 Inhibitor Suppresses Autophagy and Sensitizes Cancer Cells to Nutrient Stress” (iScience, 2018).
Blank lines part the entries; values can stand above or below the compound they belong to.

Experiments:
[1] = molecular target: Activin receptor type-2A (Homo sapiens) (UniProt P27037); assay: Inhibition of human recombinant ACTR2 at 500 nM in presence of ATP by radiometric assay relative to control
[2] = molecular target: Receptor tyrosine-protein kinase erbB-4 (Homo sapiens) (UniProt Q15303); assay: Inhibition of human recombinant ErbB4 at 500 nM in presence of ATP by radiometric assay relative to control
[3] = molecular target: Casein kinase II subunit alpha' (Homo sapiens) (UniProt P19784); assay: Inhibition of human recombinant CK2a2 at 500 nM in presence of ATP by radiometric assay relative to control
[4] = molecular target: Tyrosine-protein kinase SYK (Homo sapiens) (UniProt P43405); assay: Inhibition of human recombinant SYK at 15 nM related to control ULK1
[5] = molecular target: Tyrosine-protein kinase Fgr (Homo sapiens) (UniProt P09769); assay: Inhibition of human recombinant FGR at 15 nM related to control ULK1
[6] = molecular target: Homeodomain-interacting protein kinase 1 (Homo sapiens) (UniProt Q86Z02); assay: Inhibition of human recombinant HIPK1 at 15 nM in presence of ATP by radiometric assay relative to control
[7] = molecular target: Insulin receptor-related protein (Homo sapiens) (UniProt P14616); assay: Inhibition of human recombinant IRR at 15 nM related to control ULK1
[8] = molecular target: Mitogen-activated protein kinase kinase kinase kinase 1 (Homo sapiens) (UniProt Q92918); assay: Inhibition of human recombinant HPK1 at 15 nM in presence of ATP by radiometric assay relative to control
[9] = molecular target: Casein kinase I isoform gamma-2 (Homo sapiens) (UniProt P78368); assay: Inhibition of human recombinant CK1g2 at 40 nM related to control ULK1
[10] = molecular target: T1, Serine/threonine-protein kinase Nek11 (Homo sapiens) (UniProt Q8NG66); assay: Inhibition of human recombinant NEK11 at 40 nM in presence of ATP by radiometric assay relative to control
T1 sequence (whole entry): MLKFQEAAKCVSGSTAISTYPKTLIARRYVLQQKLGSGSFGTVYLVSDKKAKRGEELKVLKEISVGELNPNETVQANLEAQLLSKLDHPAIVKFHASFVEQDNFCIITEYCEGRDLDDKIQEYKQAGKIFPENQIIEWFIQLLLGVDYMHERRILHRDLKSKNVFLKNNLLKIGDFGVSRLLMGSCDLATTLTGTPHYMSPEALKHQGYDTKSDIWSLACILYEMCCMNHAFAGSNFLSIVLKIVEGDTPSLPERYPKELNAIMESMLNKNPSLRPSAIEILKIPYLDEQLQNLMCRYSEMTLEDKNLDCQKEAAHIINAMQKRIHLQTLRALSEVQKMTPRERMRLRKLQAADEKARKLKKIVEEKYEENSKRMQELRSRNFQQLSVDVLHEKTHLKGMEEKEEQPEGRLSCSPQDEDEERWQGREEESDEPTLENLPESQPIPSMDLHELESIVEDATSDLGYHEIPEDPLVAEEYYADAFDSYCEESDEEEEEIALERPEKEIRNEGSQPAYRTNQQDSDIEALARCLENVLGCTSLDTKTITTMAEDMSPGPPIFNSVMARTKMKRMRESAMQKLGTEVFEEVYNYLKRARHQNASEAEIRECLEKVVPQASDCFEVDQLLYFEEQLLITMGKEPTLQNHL

[11] = molecular target: Glycogen synthase kinase-3 alpha (Homo sapiens) (UniProt P49840); assay: Inhibition of human recombinant GSK3A at 40 nM in presence of ATP by radiometric assay relative to control
[12] = molecular target: T2, Serine/threonine-protein kinase Sgk3 (Homo sapiens) (UniProt Q96BR1); assay: Inhibition of human recombinant SGK3 at 40 nM in presence of ATP by radiometric assay relative to control
T2 sequence (whole entry): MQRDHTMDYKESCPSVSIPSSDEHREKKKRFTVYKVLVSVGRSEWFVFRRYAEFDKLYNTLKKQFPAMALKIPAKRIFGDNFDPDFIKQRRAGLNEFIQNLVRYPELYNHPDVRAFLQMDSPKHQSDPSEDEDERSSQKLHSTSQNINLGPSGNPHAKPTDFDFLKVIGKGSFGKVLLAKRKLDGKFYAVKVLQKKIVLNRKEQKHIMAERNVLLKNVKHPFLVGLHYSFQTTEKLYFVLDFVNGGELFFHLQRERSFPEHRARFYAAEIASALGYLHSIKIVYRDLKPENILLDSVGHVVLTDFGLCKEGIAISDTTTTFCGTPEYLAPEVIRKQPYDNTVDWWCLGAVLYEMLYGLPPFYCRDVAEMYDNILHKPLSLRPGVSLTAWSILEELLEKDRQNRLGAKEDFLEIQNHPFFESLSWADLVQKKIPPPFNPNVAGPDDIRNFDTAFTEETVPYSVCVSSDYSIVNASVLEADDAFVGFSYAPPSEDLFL

[13] = molecular target: T3, Serine/threonine-protein kinase 17A (Homo sapiens) (UniProt Q9UEE5); assay: Inhibition of human recombinant DRAK1 at 40 nM related to control ULK1
T3 sequence (whole entry): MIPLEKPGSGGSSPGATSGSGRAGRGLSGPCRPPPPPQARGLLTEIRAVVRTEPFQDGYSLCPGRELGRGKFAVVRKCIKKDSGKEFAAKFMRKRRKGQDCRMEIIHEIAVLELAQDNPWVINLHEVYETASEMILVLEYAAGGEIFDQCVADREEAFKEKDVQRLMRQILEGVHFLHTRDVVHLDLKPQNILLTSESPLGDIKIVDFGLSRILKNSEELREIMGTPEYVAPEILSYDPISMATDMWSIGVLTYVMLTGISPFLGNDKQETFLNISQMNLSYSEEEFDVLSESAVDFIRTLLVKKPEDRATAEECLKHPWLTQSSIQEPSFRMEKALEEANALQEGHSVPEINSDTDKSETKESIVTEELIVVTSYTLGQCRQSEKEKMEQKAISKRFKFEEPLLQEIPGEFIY

inhibition [1]: 3%
inhibition [2]: 0%
inhibition [3]: 5%
SMILES: CNC(=O)c1ccccc1Oc1nc(Nc2cc(OC)c(OC)c(OC)c2)ncc1Br

fold change (FC) [4]: 0
fold change (FC) [5]: 0.49
inhibition [6]: 0%
fold change (FC) [7]: 0.02
inhibition [8]: 0%
SMILES: CC(C)[C@H](NC(=O)c1cc(-c2cnn3cc(-c4ccc(OCCN5CCCCC5)cc4)cnc23)cs1)C(F)(F)F

fold change (FC) [9]: 0.07
inhibition [10]: 8%
inhibition [11]: 0%
inhibition [12]: 0%
fold change (FC) [13]: 1.07
SMILES: O=C(N[C@@H](C1CC1)C(F)(F)F)c1cc(-c2cnn3cc(-c4ccc(F)cc4)cnc23)cs1
